Read-outs that look alike come from different tables or passages of the source.

The target in data set [1] is T1, MRP (Homo sapiens, UniProt P33527).
T1 construct: Human promyelocytic leukemia HL-60/ADR cells, which express MRP; endogenous in cells; host or cells: HL-60/ADR human promyelocytic leukemia cells
In words: Reversal of MRP-mediated MDR: potentiation of vincristine cytotoxicity toward HL-60/ADR cells. The data set is classed as cell-based.

A short description of data set [2]: Intrinsic cytotoxicity of the compounds toward drug-sensitive MCF-7 cells (sulforhodamine B binding assay). The conditions noted are these: human, Cytotoxicity (% killed at 10 μg/ml).
Data set [3] concerns MCF-7 human breast carcinoma cells. The conditions noted are these: mcf-7 cells, 48 h.
A short description of data set [4]: in vitro. The conditions noted are these: human, mcf-7 cells, Cytotoxicity (% killed at 10 μg/ml).
Data set [5] concerns the target Pgp (Homo sapiens, UniProt P08183).
The mark [6] stands for this setting: chemosensitizing score on a scale of 0-5 (best activity=5; equal or superior to verapamil = 4, 4.5 or 5), HL-60/ADR cells, 2 nM vincristine, 48 h.

T1 sequence (P33527 whole entry): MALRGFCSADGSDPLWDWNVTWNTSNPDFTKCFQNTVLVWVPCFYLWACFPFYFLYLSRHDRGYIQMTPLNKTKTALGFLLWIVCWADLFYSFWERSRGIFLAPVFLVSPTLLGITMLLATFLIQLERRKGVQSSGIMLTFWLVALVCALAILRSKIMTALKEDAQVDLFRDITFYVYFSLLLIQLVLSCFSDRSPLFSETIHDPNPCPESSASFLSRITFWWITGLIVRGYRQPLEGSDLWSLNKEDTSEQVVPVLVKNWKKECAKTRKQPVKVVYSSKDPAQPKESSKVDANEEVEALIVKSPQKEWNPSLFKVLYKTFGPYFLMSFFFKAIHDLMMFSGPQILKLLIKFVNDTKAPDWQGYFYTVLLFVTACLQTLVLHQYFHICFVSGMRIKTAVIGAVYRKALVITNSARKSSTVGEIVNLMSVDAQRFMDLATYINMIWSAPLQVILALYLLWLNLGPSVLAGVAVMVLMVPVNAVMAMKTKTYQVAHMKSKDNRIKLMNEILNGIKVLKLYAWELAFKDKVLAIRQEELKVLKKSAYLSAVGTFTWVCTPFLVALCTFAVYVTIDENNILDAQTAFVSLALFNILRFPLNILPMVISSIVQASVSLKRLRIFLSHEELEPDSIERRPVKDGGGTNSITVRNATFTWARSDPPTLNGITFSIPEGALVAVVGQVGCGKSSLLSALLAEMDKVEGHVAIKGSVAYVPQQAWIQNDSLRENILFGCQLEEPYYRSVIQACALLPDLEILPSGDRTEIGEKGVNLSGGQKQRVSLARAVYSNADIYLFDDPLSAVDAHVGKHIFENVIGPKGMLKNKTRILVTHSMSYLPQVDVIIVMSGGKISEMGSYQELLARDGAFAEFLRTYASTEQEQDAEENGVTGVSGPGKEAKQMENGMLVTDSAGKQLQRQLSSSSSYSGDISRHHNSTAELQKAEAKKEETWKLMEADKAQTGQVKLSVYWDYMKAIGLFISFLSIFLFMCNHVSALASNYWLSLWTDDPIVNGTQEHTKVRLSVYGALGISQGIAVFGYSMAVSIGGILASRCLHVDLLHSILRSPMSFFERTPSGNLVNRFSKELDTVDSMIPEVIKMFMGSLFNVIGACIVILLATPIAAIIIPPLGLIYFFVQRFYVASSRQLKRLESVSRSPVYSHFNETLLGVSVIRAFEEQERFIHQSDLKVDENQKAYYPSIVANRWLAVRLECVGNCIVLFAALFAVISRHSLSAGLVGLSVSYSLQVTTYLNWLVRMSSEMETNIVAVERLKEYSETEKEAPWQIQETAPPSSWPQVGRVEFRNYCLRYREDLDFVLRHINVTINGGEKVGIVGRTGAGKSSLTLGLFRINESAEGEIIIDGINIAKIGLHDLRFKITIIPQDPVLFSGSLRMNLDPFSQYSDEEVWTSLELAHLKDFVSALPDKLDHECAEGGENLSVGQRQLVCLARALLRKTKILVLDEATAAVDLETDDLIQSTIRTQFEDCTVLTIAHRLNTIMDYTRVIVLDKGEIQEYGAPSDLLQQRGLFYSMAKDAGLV
Sequence of Pgp (P08183 whole entry): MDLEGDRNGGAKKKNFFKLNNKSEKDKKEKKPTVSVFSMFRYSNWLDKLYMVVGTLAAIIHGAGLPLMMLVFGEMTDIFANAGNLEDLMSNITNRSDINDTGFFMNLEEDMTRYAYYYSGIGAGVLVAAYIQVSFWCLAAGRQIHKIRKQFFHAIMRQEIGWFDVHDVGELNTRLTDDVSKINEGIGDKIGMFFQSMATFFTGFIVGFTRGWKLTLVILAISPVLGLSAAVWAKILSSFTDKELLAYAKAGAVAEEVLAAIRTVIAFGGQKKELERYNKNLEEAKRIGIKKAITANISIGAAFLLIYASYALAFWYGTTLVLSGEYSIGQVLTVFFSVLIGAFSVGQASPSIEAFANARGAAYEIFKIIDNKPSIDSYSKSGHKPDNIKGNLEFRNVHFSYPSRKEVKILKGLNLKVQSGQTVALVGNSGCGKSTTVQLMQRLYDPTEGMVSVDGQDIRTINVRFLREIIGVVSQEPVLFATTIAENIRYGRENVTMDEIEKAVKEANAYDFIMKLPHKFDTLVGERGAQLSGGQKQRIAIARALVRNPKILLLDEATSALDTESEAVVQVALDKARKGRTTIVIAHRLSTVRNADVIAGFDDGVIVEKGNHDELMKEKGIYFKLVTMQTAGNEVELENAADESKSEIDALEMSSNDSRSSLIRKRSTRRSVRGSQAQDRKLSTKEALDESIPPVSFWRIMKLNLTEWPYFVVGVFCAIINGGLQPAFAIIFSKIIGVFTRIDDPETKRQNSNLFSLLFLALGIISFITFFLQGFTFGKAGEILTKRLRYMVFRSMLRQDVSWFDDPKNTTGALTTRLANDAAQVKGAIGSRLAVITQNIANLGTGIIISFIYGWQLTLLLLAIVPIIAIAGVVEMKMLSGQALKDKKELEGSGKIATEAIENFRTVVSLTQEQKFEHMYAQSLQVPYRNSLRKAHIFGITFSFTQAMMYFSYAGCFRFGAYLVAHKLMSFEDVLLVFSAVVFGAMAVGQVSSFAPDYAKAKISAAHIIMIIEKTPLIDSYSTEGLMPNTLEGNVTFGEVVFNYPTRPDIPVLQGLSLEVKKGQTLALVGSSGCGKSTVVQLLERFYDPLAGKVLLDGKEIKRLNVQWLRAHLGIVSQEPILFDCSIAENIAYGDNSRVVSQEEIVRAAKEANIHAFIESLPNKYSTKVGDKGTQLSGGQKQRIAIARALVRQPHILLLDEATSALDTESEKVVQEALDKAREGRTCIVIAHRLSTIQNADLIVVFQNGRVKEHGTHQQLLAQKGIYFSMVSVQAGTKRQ

As to `COc1cc(C2(O)CC3CCC2N(Cc2ccccc2)C3)cc(OC)c1OC` (stereo not drawn) [Compound I-2, 2-benzyl-cis-6-hydroxy-trans-6-(3,4,5-trimethoxyphenyl)-2-azabicyclco[2.2.2]octane], in data set [1] (setting [6]), the MRP antagonism worked out at 3. In addition, the cytotoxicity at 48 h in data set [2] was determined as 39%.
Turning to `COc1cc(C2CC3CCC2N(Cc2ccccc2)C3)cc(OC)c1OC` (stereo not shown) [Compound I-3, 2-benzyl-6-(3,4,5-trimethoxyphenyl)-2-azabicyclo[2.2.2]octane], in data set [1] (setting [6]), the MRP antagonism is 4. The cytotoxicity at 48 h in data set [2] was 22%.
In the case of `COc1cc(C2CC3CCC2NC3)cc(OC)c1OC` (stereo not drawn) [Compound I-4, cis-6-(3,4,5-trimethoxyphenyl)-2-azabicyclo[2.2.2]octane], the MRP antagonism in data set [1] (setting [6]) is recorded as 2. The “Cytotoxicity (% killed at 10 μg/ml)” value in data set [3] stood at 12%.
On to `COc1cc(C2CC3CCC2NC3)cc(OC)c1OC` (stereo not drawn) [Compound I-5, trans-6-(3,4,5-trimethoxyphenyl)-2-azabicyclo[2.2.2]octane], for which the MRP antagonism in data set [1] (setting [6]) came out at 4. Besides, the “Cytotoxicity (% killed at 10 μg/ml)” value in data set [3] turned out to be 0%.
Turning to `Oc1ccc(C2(O)CC3CCC2N(Cc2ccccc2)C3)cc1O` (stereo not drawn) [Compound I-6, 2-benzyl-cis-6-hydroxy-trans-6-(3,4-dihydroxyphenyl)-2-azabicyclo[2.2. 2]octane], in data set [1] (setting [6]), the MRP antagonism is 1.5. For the same molecule, the cytotoxicity at 48 h in data set [2] was 21%.
In the case of `CCN1CC2CCC1C(Nc1ccccc1)C2` (stereo not shown) [Compound I-7, 2-ethyl-6-anilino-2-azabicyclo[2.2.2]octane], the MRP antagonism in data set [1] (setting [6]) was 1. Further, the cytotoxicity at 48 h in data set [4] was found to be 26%.
The corresponding values for `OC1CC2CCC1N(Cc1ccccc1)C2` (stereo not drawn) [Compound I-9, 2-benzyl-6-trans-hydroxy-2-azabicyclo[2.2.2]octane] are 0 and 0%.
Regarding `OC1(c2ccc(OCc3ccccc3)c(OCc3ccccc3)c2)CC2CCC1N(Cc1ccccc1)C2` (stereo not shown) [Compound I-10, 2-benzyl-6-(3,4-dibenzyloxyphenyl)-6-hydroxy-2-azabicyclo[2.2.2]octane], in data set [1] (setting [6]), the MRP antagonism was found to be 0. The cytotoxicity at 48 h in data set [2] was found to be 0%.
Consider `CN1CC2CCC1C(=O)C2=C(c1ccccc1)c1ccccc1` (stereo not shown) [Compound I-11, 5-diphenylmethylidene-2-methyl-2-azabicyclo[2.2.2]octan-6-one], for which the cytotoxicity at 48 h in data set [2] worked out at 8%.
`NNC(=O)OC1CC2CCC(C1)N2C(=O)Oc1ccc(Cl)cc1` (stereo not shown) [II-1, 3-hydrazinocarbonyloxy-8-(4-chlorophenoxycarbonyl)-8-azabicyclo[3.2. 1]octane]: the MRP antagonism in data set [1] is reported as 2. The same molecule showed a Pgp antagonism in data set [5] of 3.

Source of the values: patent US6248752A, “Azabicyclooctane compositions and methods for enhancing chemotherapy” (priority 1999, dated 2001).
